# According to patent publication US10100027B2, “Benzofuran analogue as NS4B inhibitor” (priority 2014, dated 2018):
# Columns and labels:
# Type in all cases: cell-based
# [1] = system: HCV genotype 1b (HCV-1b) replicon cells; assay: HCV genotype 1b replicon cell assay (luciferase, Bright-Glo); settings: Hepatitis C virus, 72 h, HCV-1b (Con1) replicon cells, 3 days
# Description: (§1) The EC50 and CC50 values of anti-HCV compounds were determined by HCV genotype 1a (HCV-1a) and 1b (HCV-1b) stable transfected replication (replicon) cells. The source of genotype 1a replicon is H77 clones containing K1691R, K2040R and S2204I adaptive mutations. The source of genotype 1b replicon is Con1 clones containing E1202G, T1280I and K1846T adaptive mutations.
# (§2) HCV 1a (HCV-1a) and 1b (HCV-1b) gene subtype replicon system contains the related HCV gene subtype non-structural protein gene, G418 resistance gene NEO and luciferase gene, which results in that HCV related protein and luciferase can be stably expressed in cells. By detecting the level of expression of luciferase gene, the level of HCV replication can be determined. Therefore, the system is used as a model for screening the activity of anti-HCV compound in vitro.
# (§3) The compound powder was dissolved in 100% DMSO. Then the compound was diluted 5 times with 6 points, and added into the cell plate with Echo liquid handler. Ensure the final concentration of DMSO was 0.5%. Each compound was tested in duplicate.
# (§4) 4) Diluting cells to 8×10^4 cells/mL with the culture medium, adding the diluted cells into the compound-containing 96-well plate (Greiner, Cat. #655090) (100 μL/well, 8000 cells/well) with automatic liquid separator (Thermo Scientific). Then place into a 37° C., 5% CO2 incubator for 3 days. Cell control well: no compound, only containing 0.5% DMSO.
# (§5) 6) Then adding luciferase substrate Bright-Glo, after incubation for 5 minutes, detecting the luciferase activity by microplate reader Envison (wavelength>700 nm); analyzing the anti-HCV inhibitory activity of the compounds according to luminescence data, which was used to calculate EC50 values.
# (§6) The EC50 or CC50 values were obtained by nonlinear fitting regression on inhibition percentage (inh %) data with GraphPad Prism software.
# [2] = system: HCV genotype 1a (HCV-1a) replicon cells; assay: HCV genotype 1a replicon cell assay (luciferase, Bright-Glo); settings: Hepatitis C virus, 72 h, HCV-1a (H77) replicon cells, 3 days
# Description: as §1, §2, §3, §4, §5, §6
# [3] = Cytotoxicity in HCV replicon cells (Cell Titer-fluor)
# Description: as §1, §3, §4
# 5) Adding fluorescence substrate Cell Titer-fluor to the cell well, after incubation for 30 minutes, detecting the signal by microplate reader Envison (Ex at 405 nm and read at 515 nm). The effect of the compounds on the cytotoxicity of HCV replicon cells was analyzed according to the fluorescence data, which was used to calculate the CC50 values.
# as §6
SMILES,EC50 [1] [nM],EC50 [2] [nM],CC50 at 3 days [3] [nM]
O=C1CN(N2CCN(C(=O)c3oc4c(C(F)(F)F)cc(C5CC5)cc4c3Cl)CC2=O)C(=O)N1 [YD_0272],100 to 1000,100 to 1000,> 3000
CC(C)N(C)C(=O)C1CCN(C(=O)c2oc3c(C(F)(F)F)cc(C4CC4)cc3c2Cl)CC1 [YD_0302],1000 to 5000,100 to 1000,> 3000
CN(C)C1CN(C(=O)C2CCN(C(=O)c3oc4c(C(F)(F)F)cc(C5CC5)cc4c3Cl)CC2)C1 [YD_0343],1000 to 5000,100 to 1000,> 3000
CCN(C)C(=O)C1CCN(C(=O)c2oc3c(C(F)(F)F)cc(C4CC4)cc3c2Cl)CC1 [YD_0304],0.1 to 100,100 to 1000,> 3000
CC(C)N1CCN(C(=O)c2nc3c(C(F)(F)F)cc(C4CC4)cn3c2Cl)NC1=O [YA_0360],0.1 to 100,0.1 to 100,> 3000
COC1(C)CN(C(=O)C2CCN(C(=O)c3oc4c(C(F)(F)F)cc(C5CC5)cc4c3Cl)CC2)C1 [YD_0344],1000 to 5000,100 to 1000,> 3000
CC1(C(N)=O)CN(C(=O)C2CCN(C(=O)c3oc4c(C(F)(F)F)cc(C5CC5)cc4c3Cl)CC2)C1 [YD_0348],1000 to 5000,100 to 1000,> 3000
O=C(c1oc2c(F)cc(C3CC3)cc2c1Cl)N1CCN(N2CCOC2=O)CC1 [YD_0245],0.1 to 100,0.1 to 100,> 3000
O=C(c1nc2c(C(F)(F)F)cc(C3CC3)cn2c1Cl)N1CCN(C2CC(F)(F)C2)C(=O)N1 [YA_0367],0.1 to 100,0.1 to 100,> 3000
O=C(c1oc2c(C(F)(F)F)cc(C3CC3)cc2c1Cl)N1CCN(N2CCOC2=O)CC1 [YD_0214],0.1 to 100,0.1 to 100,> 3000
CCOC(=O)NN1CCN(C(=O)c2oc3c(C(F)(F)F)cc(C4CC4)cc3c2Cl)CC1 [YD_0312],100 to 1000,100 to 1000,> 3000
O=C(c1oc2c(C(F)(F)F)cc(C3CC3)cc2c1Cl)N1CCC(C(=O)N2CC(O)C2)CC1 [YD_0356],0.1 to 100,0.1 to 100,> 3000
O=C(c1nc2c(C(F)(F)F)cc(C3CC3)cn2c1Cl)N1CCN([C@H]2CC[C@H](O)CC2)C(=O)N1 [YA_0363],0.1 to 100,0.1 to 100,> 3000
O=C(c1nc2c(C(F)(F)F)cc(C3CC3)cn2c1Cl)N1CCN(C2CCC(F)(F)CC2)C(=O)N1 [YA_0366],0.1 to 100,0.1 to 100,> 3000
NC1CN(C(=O)C2CCN(C(=O)c3oc4c(C(F)(F)F)cc(C5CC5)cc4c3Cl)CC2)C1 [YD_0346],100 to 1000,100 to 1000,> 3000
CN(C)C(=O)C1(C)CCN(C(=O)c2oc3c(C(F)(F)F)cc(C4CC4)cc3c2Cl)CC1 [YD_0317],1000 to 5000,100 to 1000,> 3000
CC(C)c1cc(C(F)(F)F)c2oc(C(=O)N3CCN(N4CCOC4=O)CC3)c(Cl)c2c1 [YD_0215],0.1 to 100,0.1 to 100,> 3000
O=C(c1oc2c(C(F)(F)F)cc(C3CC3)cc2c1Cl)N1CCC(C(=O)N2CC3CC3C2)CC1 (stereo not drawn) [YD_0324],0.1 to 100,0.1 to 100,> 3000
O=C(c1oc2c(C(F)F)cc(C3CC3)cc2c1Cl)N1CCN(N2CCOC2=O)CC1 [YD_0278],0.1 to 100,0.1 to 100,> 3000
O=C(c1nc2c(C(F)(F)F)cc(C3CC3)cn2c1Cl)N1CCN(C2CCCC2)C(=O)N1 [YA_0338],0.1 to 100,0.1 to 100,> 3000
O=C(NC12CCC(c3nnco3)(CC1)CC2)c1oc2c(C(F)(F)F)cc(C3CC3)cc2c1Cl [YD_0122],100 to 1000,0.1 to 100,> 3000
C[C@H]1COCCN1C(=O)C1CCN(C(=O)c2oc3c(C(F)(F)F)cc(C4CC4)cc3c2Cl)CC1 [YD_0311],100 to 1000,100 to 1000,> 3000
